Data on 95 molecules can be found in PubChem BioAssay AID1117319 (Southern Research Institute, 2015).

Molecules are shown by their SMILES. Inconclusive results are not listed.

For this assay, the target named is Virion infectivity factor (Human immunodeficiency virus type 1 group M subtype B (isolate BH10)) + Virion infectivity factor (Human immunodeficiency virus type 1 group M subtype B (isolate BRU/LAI)) + Virion infectivity factor (Human immunodeficiency virus type 1 group M subtype B (isolate PCV12)) + Virion infectivity factor (Human immunodeficiency virus type 1 group M subtype B (isolate HXB2)) + DNA dC->dU-editing enzyme APOBEC-3G (Homo sapiens) (UniProt P69720+P69721+P69722+P69723+Q9HC16). The assay is described as follows: inhibitors of Vif binding to APOBEC3G peptide, primary screen, biochemical, TR-FRET, GST-Vif 1-94, biotin-A3G peptide, dose response retest (AID 1117319).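 Also: Vif residues 1-94 fused to GST binding biotinylated APOBEC3G peptide 110-148.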 In general terms: Time-resolved FRET reads energy transfer from a long-lived donor to a nearby acceptor.
`COc1ccc2nc3ccccc3nc2c1N`: the IC50 (usually the concentration that gives 50% inhibition) is 6 µM.

In the case of `O=C(O)C1Nc2ccc(Br)cc2C2C=CCC12` (stereo not given), the concentration for half-maximal inhibition (IC50) is 1.56 µM.

As to `Cc1cc(-c2csc(NC(=O)c3ccc(C#N)cc3)n2)c(C)n1Cc1ccco1`, the IC50 is 3.35 µM.

With `CN(C(=S)Nc1cccnc1)c1ccc(O)cc1`, the IC50 is 1.85 µM.

As to `COc1cc(CNc2ccc(O)cc2)cc(Br)c1OCc1ccccc1`, the half-inhibitory concentration (IC50) was 3.04 µM.

As for `CN(C)c1ccc(N2C(=O)CC(Nc3ccc(N4CCOCC4)cc3)C2=O)cc1` (stereo not given), the IC50 was 1.23 µM.

With `O=C(O)c1ccc2c(c1)C1C=CCC1C(c1ccncc1)N2` (stereo not given), the IC50 was 3.85 µM.

For `Cc1cc(C)cc(N(CC(=O)NCc2cccnc2)S(C)(=O)=O)c1`, the 50% inhibitory concentration (IC50) is 36.7 µM.

Take `Oc1c(CN2CCOCC2)cc(CN2CCOCC2)c(O)c1O`: the concentration for half-maximal inhibition (IC50) was 9.18 µM.

On to `O=C(O)Cn1cc(/C=C2\C(=O)NC(=O)N(Cc3ccco3)C2=O)c2ccccc21`, for which the IC50 is 14.7 µM.

Regarding `CC1OC(OCC2OC(Oc3c(-c4ccc(O)cc4)oc4cc(O)cc(O)c4c3=O)C(O)C(O)C2O)C(O)C(O)C1O` (stereo not given), the IC50 was 11.8 µM.

For `O=C(O)c1cccc(-n2cccc2/C=C/[N+](=O)[O-])c1`, the concentration for half-maximal inhibition (IC50) was 5.49 µM.

For `COc1cc(/C=C2/C(=O)c3cccc([N+](=O)[O-])c3C2=O)c(Br)cc1O`, the IC50 was 32.2 µM.

Take `Cc1cc(/C=C2\SC(=S)NC2=O)c(C)n1-c1ccccc1`: the IC50 was 14.1 µM.

In the case of `COc1ccc(NC(=O)Nc2cccs2)cc1OC`, the IC50 is 34.5 µM.

`COc1cc(OC)c2c(O)c3c(c(-c4c5c(c(O)c6c(OC)cc(OC)cc46)CO[C@@H](C)[C@H]5O)c2c1)[C@H](O)[C@H](C)OC3`: the IC50 is 4.61 µM.

`O=C(O)c1ccc(Cl)c2c1C1C=CCC1C(c1ccccn1)N2` (stereo not given): the half-inhibitory concentration (IC50) was 0.82 µM.

For `C=CCn1c(C)c(C(C)=O)c(N2CCN(c3ccccc3)CC2)nc1=S`, the IC50 was 8.23 µM.

Turning to `CCN(CC)c1ccc2c(c1)CCCN2`, the half-maximal inhibitory concentration (IC50) was 1.17 µM.

For the molecule `Cc1onc(-c2ccccc2Cl)c1C(=O)NCc1ccco1`, the half-inhibitory concentration (IC50) is 1.08 µM.

As for `C=C(C)C(=O)Nc1cccc(C2=NOC3(C2)C[C@@H](C(N)=O)N(C(=O)/C=C/CC)C3)c1` (stereo not given in full), the IC50 is 3.32 µM.

With `Cc1ccc(Nc2nc(C(=O)NCc3ccco3)cs2)cc1`, the IC50 was 78.2 µM.

Turning to `Cc1ccc(NC(=O)c2cc(-c3ccc(C)o3)nc3ccccc23)nc1`, the IC50 was 33.6 µM.

`Oc1ccc(/C=N/NP(=S)(c2ccccc2)c2ccccc2)c(O)c1O`: the half-maximal inhibitory concentration (IC50) was 17.6 µM.

`CCN1C(=O)/C(=C\c2ccco2)C(C(=O)OC)=C1C`: the 50% inhibitory concentration (IC50) is 23 µM.

Take `O=C1CC(=O)N(Cc2ccco2)C(=S)N1`: the IC50 is 2.21 µM.

`Cc1ccc(C)n1Cc1ccc(C(=O)O)cc1`: the IC50 is 1.55 µM.

Consider `Cc1ccc(C(=O)O)cc1-c1ccc(/C=C2/NC(=O)N(c3ccccc3)C2=O)o1`, for which the IC50 was 25.5 µM.

For `CCOc1cc(N2CCOCC2)c(OCC)cc1NC(C)C(=O)N1CCN(CC)CC1` (stereo not given), the concentration for half-maximal inhibition (IC50) is 23.9 µM.

As for `CCC(C)C(NC(=O)[C@@H](NC(=O)c1ccccc1F)C(C)C)C(=O)OC` (stereo not given in full), the IC50 is 5.83 µM.

As for `COc1cc(CN2CCNC(=O)C2CC(=O)N(Cc2nccn2C)C(C)C)cc(OC)c1` (stereo not given), the IC50 was 28.3 µM.

Regarding `COc1ccc2c(c1)n([O-])c1c([n+]2=O)CCC1`, the half-maximal inhibitory concentration (IC50) was 5.16 µM.

As to `O=C1CCC/C(=N\NC(=O)c2ccc(COc3cccc4cccnc34)cc2)C1`, the IC50 is 17.1 µM.

On to `O=C(O)c1ccc2c(c1)C1C(Cl)C(Sc3ccccc3[N+](=O)[O-])CC1C(c1cccc([N+](=O)[O-])c1)N2` (stereo not given), for which the 50% inhibitory concentration (IC50) is 11.8 µM.

As to `CS(=O)(=O)c1ccc2c(c1)SC1=NC(=O)/C(=C/c3ccco3)C(=N)N12`, the IC50 was 6.32 µM.

Turning to `Nc1ccc(Nc2ccccc2)c(S(=O)(=O)O)c1`, the IC50 is 5.26 µM.

`Cc1onc(-c2ccccc2Cl)c1C(=O)N1CCN(c2cccc(Cl)c2)CC1`: the IC50 is 95.4 µM.

For `COC1=C(N)C(=O)c2nc(-c3nc(C(=O)O)c(C)c(-c4ccc(OC)c(OC)c4O)c3N)ccc2C1=O`, the IC50 is 10.8 µM.

In the case of `c1ccc2c3c([nH]c2c1)CNCC3`, the concentration for half-maximal inhibition (IC50) is 84.2 µM.

With `NC(=S)N=Nc1c(O)cc(O)c2[nH]c(=O)ccc12`, the half-inhibitory concentration (IC50) was 8.04 µM.

As for `O=C(c1cc(COc2cccc3cccnc23)on1)N1CCC[C@H]1CO`, the half-inhibitory concentration (IC50) was 88.7 µM.

For `CN(Cc1cnc2nc(N)nc(N)c2n1)c1ccc(C(=O)NC(CCC(=O)O)C(=O)O)cc1` (stereo not given), the half-inhibitory concentration (IC50) is 49.2 µM.

Take `CN(CCO)c1cc(Sc2nc3ccccc3s2)c2nonc2c1[N+](=O)[O-]`: the half-inhibitory concentration (IC50) was 42.6 µM.

As to `COc1ccc(C(=O)N/N=C/C23CC[C@@H](O)CC2(O)CC[C@@H]2[C@@H]3CCC3(C)C(C4=CC(=O)OC4)CCC23O)cc1` (stereo not given in full), the concentration for half-maximal inhibition (IC50) was 86.3 µM.

Regarding `C=CCSC1=N/C(=C\C=C\c2ccco2)C(=O)S1`, the half-inhibitory concentration (IC50) was 1.05 µM.

Turning to `CC(C)C(=O)Nc1nnc(Sc2ccc(N(C)C)cc2)s1`, the IC50 was 54.8 µM.

For `COC(=O)Cc1cc(=O)n(-c2nc3ccccc3[nH]2)[nH]1`, the IC50 is 21.6 µM.

For `O=C(O)/C(=C/c1ccco1)NC(=O)c1ccccc1`, the IC50 is 19.4 µM.

For `CCOC(=O)C1=C(O)/C(=C\c2ccc(CNC(=O)C(=O)Nc3ccccc3)o2)N=C1C`, the IC50 is 1.86 µM.

`CN1c2ccsc2C(O)=C(C(=S)Nc2ccc(F)c(Cl)c2)S1(=O)=O`: the half-inhibitory concentration (IC50) was 1.12 µM.

On to `CC1(C)Cc2nc3sc(C(=O)O)c(N)c3cc2CS1`, for which the half-inhibitory concentration (IC50) was 18.4 µM.

Consider `O=S(=O)(c1ccc(NC(=S)N/N=C/c2ccc(O)c(O)c2)cc1)N1CCOCC1`, for which the IC50 was 7.53 µM.

`O=c1[nH]c2ccccc2n2c(-c3ccccc3)nnc12`: the IC50 was 15.5 µM.

With `COc1ccccc1-n1c(SCC(=O)NCc2ccc3c(c2)OCO3)nc2cc([N+](=O)[O-])ccc21`, the IC50 is 22.7 µM.

For the molecule `CCCCOc1ccccc1C1NC(=O)NC(C)=C1C(=O)OCc1ccco1` (stereo not given), the IC50 was 57.3 µM.

On to `COc1ccc(-c2nc3ccccc3n2OC(=O)N(C)C)cc1`, for which the IC50 was 42.9 µM.

Consider `Cc1ccccc1NS(=O)(=O)c1ccc2[nH]cc(C(=O)N(C)Cc3ccco3)c(=O)c2c1`, for which the half-maximal inhibitory concentration (IC50) was 56.8 µM.

In the case of `O=C(/C=C/Nc1ccccc1Br)c1ccccn1`, the half-inhibitory concentration (IC50) was 41.5 µM.

`O=C(NCC1CCCO1)c1cc(-c2ccco2)nc2ccccc12` (stereo not given): the 50% inhibitory concentration (IC50) is 14.4 µM.

For the molecule `Cc1cccc2cc(-c3ccccc3)c(-c3ccccc3)c[n+]12`, the half-maximal inhibitory concentration (IC50) is 6.83 µM.

Regarding `Cc1n[nH]c(=S)n(NC(=O)/C=C/C(=O)Nn2c(=S)[nH]nc(C)c2=O)c1=O`, the IC50 was 2.38 µM.

Take `Nc1ccc(N2CCN(CCCCN3C(=O)C4CCCN4C3=O)CC2)cc1` (stereo not given): the half-maximal inhibitory concentration (IC50) is 1.34 µM.

In the case of `CCN1/C(=C/C=C/C=C/C=C/c2sc3ccccc3[n+]2CC)Sc2ccccc21`, the half-maximal inhibitory concentration (IC50) was 4.33 µM.

On to `Cc1ccc2c(c1)c1ccc3c(c1n2C)C(=O)C=CC3=O`, for which the IC50 is 3.94 µM.

Consider `COc1ccccc1C1CC(=O)Nc2c1c(=O)n(C)c(=O)n2C` (stereo not given), for which the half-inhibitory concentration (IC50) was 70.4 µM.

Consider `CC(C)(C)NC(=O)C(c1ccncc1)N(C(=O)CNC(=O)c1ccco1)c1ccc2c(c1)OCO2` (stereo not given), for which the IC50 is 11.3 µM.

With `O=C(Cn1cnc2c(nnn2Cc2ccc(F)cc2)c1=O)NCc1ccco1`, the IC50 is 94.6 µM.

On to `O=C1NC(=S)N(c2ccccc2)C(=O)/C1=C/c1ccco1`, for which the 50% inhibitory concentration (IC50) was 9.42 µM.

Turning to `COc1ccc2[nH]c(=O)c(CN(Cc3ccco3)C(c3nnnn3Cc3ccccc3)C(C)C)cc2c1` (stereo not given), the IC50 is 94.6 µM.

Turning to `COc1cc(N(C)C)ccc1C=c1c2ccccc2n2c1cc(-c1ccccc1)[n+]2C`, the half-inhibitory concentration (IC50) was 5.33 µM.

For the molecule `CSc1nnc(-c2ccco2)c(-c2ccco2)n1`, the IC50 was 1.49 µM.

For the molecule `COc1ccc(OCCOC(=O)c2cccc(-n3cnnn3)c2)cc1`, the IC50 is 93.6 µM.

Turning to `COc1ccc2ccccc2c1C1CC(=O)N2CN(Cc3ccco3)CSC2=C1C#N` (stereo not given), the IC50 was 53.6 µM.

Turning to `CN(CC(=O)Nc1ccc(F)cc1)C(=O)c1cc(-c2ccco2)nc2ccccc12`, the half-maximal inhibitory concentration (IC50) is 5.48 µM.

On to `CCOC(=O)C(C)N1C(=O)S/C(=C\c2ccc(-c3ccccc3C(=O)O)o2)C1=O` (stereo not given), for which the IC50 is 10.8 µM.

For `CNc1ccc(Br)cc(C(=O)/C=C/c2ccc(OC)cc2OC)c1=O`, the IC50 was 2.79 µM.

For the molecule `CC(=O)NC1=NC(=O)/C(=C/c2cc(C)n(-c3cccc(C(=O)O)c3)c2C)S1`, the IC50 was 7.28 µM.

Take `O=C(NCc1ccccc1Cl)c1csc2c1CCCCC2`: the IC50 was 8.35 µM.

Take `COc1ccc(-n2c(C)cc(C(=O)CSc3nn4c(=O)c(C(C)(C)C)nnc4s3)c2C)cc1`: the IC50 was 10.3 µM.

`Cc1c(O)cc2c(c1O)C(=O)CC(c1ccc(O)cc1)O2` (stereo not given): the half-inhibitory concentration (IC50) is 2.68 µM.

For `O=C1c2sc3nc4n(c(=O)c3c2CCC1Br)CCCCC4` (stereo not given), the half-inhibitory concentration (IC50) was 0.54 µM.

Turning to `CN(C)c1ccc(N2C(=O)CSC2=S)cc1`, the IC50 is 8.37 µM.

Take `CNc1ccc(Br)cc(C(=O)/C=C/c2ccc3c(c2)OCO3)c1=O`: the IC50 is 21.9 µM.

On to `O=C(OC1CCCCC1)c1ccc2c(c1)C1C=CCC1C(C(=O)O)N2` (stereo not given), for which the IC50 was 0.51 µM.

As for `CC1CC(=O)c2c(cc3c(-c4c(O)cc(O)c5c(O)c6c(cc45)OC(C)CC6=O)c(O)cc(O)c3c2O)O1` (stereo not given), the half-inhibitory concentration (IC50) is 0.41 µM.

On to `COc1ccc(O)c(C(=O)C2c3ccccc3C(=O)N2c2ccc(C)cc2)c1` (stereo not given), for which the 50% inhibitory concentration (IC50) was 20.4 µM.

For `O/N=C1\CCC\C1=C/c1ccco1`, the IC50 is 7.57 µM.

Consider `O=C1c2ccccc2C(=O)N1OCCOCCOCCBr`, for which the concentration for half-maximal inhibition (IC50) was 92.3 µM.

For `O=C(c1coc(=O)c(Br)c1)N1CCCc2ccccc21`, the IC50 is 24.3 µM.

For the molecule `C=CCn1c(COc2ccc(F)cc2)nnc1SCC(=O)NC(=O)NCc1ccco1`, the IC50 was 40.7 µM.

Take `O=C1CCCC(O)=C1C=Nc1ccc(O)cc1`: the IC50 was 35.4 µM.

Consider `CN(C1=C(NC(=O)c2ccc(Cl)cc2)C(=O)c2ccccc2C1=O)c1ccccc1`, for which the IC50 is 52.4 µM.

With `CC(=O)N(\C=C/C=C/C=C1\Sc2ccccc2C1=O)c1ccccc1`, the IC50 is 5.47 µM.

On to `CCC(C)(C)n1nnnc1C(c1ccc2ncccc2c1)N1CCN(c2ccc(O)cc2)CC1` (stereo not given), for which the 50% inhibitory concentration (IC50) was 4.65 µM.

With `Cc1ncc(CO)c(/C=N/NC(=O)c2cc(O)c(O)c(O)c2)c1O`, the IC50 is 2.45 µM.
